Assay results taken from US5089516A, “1-phenyl-3,5-pyrazolidinedione hydroxystyrene compounds which have tyrosine kinase inhibiting activity” (Kanegafuchi Kagaku Kogyo Kabushiki Kaisha, priority 1987, dated 1992).
Values after ≈ are worked out from the molar mass of the structure shown.

Key:
[1] = system: Nycobacterium smegmatis ATCC 607; test: Antibacterial activity (MIC) against acid-fast bacteria; type: cell-based; conditions: 37° C., 40 to 42 hours
Procedure: As for acid-fast bacteria, after cultured in glycerol broth medium, there was prepared a bacterial suspension for inoculation containing about 10^6 of the bacteria per 1 ml of the medium. On the other hand, there were prepared some glycerol Czapek agar plating media with adding the test compounds, and thereto the bacterial suspension for inoculation was streaked.

[2] = target: T1, epidermal growth factor receptor-tyrosine kinase complex (Homo sapiens, UniProt P00533); test: Tyrosine kinase inhibiting activity (A-431 membrane preparation, EGF-stimulated); type: biochemical; conditions: read-out: Tyrosine kinase inhibition rate; for inhibition at 1 µM: 1 μM in the reaction mixture; for inhibition at 10 µM: 10 μM in the reaction mixture
T1 construct: The membrane preparation was employed in the following measurement without solubilization; endogenous in cells; host or cells: A-431 (ATCC CRL1555), membrane preparation, not solubilized
T1 sequence (P00533 25-1210, one chain of several): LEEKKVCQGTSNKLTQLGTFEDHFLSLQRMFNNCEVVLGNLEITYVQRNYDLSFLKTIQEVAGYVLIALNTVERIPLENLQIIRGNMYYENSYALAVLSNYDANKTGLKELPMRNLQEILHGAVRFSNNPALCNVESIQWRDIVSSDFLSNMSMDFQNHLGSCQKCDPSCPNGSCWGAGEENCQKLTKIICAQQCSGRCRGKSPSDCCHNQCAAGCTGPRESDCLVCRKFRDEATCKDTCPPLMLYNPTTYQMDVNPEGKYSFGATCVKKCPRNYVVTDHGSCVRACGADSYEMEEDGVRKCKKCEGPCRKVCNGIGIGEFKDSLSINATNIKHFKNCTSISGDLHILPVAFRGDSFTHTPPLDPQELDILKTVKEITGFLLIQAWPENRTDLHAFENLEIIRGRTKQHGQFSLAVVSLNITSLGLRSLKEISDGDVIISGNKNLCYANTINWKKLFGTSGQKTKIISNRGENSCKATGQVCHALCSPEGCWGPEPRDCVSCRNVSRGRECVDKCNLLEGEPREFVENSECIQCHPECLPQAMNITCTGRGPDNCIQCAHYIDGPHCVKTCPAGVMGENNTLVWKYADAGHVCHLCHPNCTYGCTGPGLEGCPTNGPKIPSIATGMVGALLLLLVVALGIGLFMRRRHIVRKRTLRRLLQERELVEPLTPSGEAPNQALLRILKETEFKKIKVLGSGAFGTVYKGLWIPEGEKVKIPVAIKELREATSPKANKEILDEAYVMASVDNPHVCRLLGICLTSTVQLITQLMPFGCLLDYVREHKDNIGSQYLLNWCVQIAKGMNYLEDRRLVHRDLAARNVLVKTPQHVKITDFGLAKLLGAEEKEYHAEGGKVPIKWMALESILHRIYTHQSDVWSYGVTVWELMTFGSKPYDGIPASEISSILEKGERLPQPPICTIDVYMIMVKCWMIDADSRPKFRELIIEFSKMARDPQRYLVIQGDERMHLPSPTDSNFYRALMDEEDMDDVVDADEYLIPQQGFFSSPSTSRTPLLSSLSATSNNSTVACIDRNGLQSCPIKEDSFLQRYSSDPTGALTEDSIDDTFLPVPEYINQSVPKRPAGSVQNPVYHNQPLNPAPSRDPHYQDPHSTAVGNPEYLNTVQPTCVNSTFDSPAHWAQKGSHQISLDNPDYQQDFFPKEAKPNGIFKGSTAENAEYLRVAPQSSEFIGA
Procedure: Tyrosine kinase inhibiting activity of the compound of the present invention was measured referring to a method for measuring tyrosine kinase activity by G. Carpenter or by S. Cohen et al. [J. Biol. Chem., 254, 4884(1979); J. Biol. Chem., 257, 1528(1982)].
Cell line A-431 derived from human carcinoma (ATCC CRL1555) was cultured at 37° C. under the condition of 5% CO2 in Dulbecco's modified Eagle's medium (made by NISSUE PHARMACEUTICAL CO., LTD.) containing 10% by volume fetal bovine serum, 50 μg/ml of streptomycin, 50 IU/ml of penicillin G and 50 μg/ml of kanamycin. […] The membrane preparation was employed in the following measurement without solubilization.
A test compound dissolved in dimethylsulfoxide (hereinafter referred to as "DMSO") was added to a mixture of 20 mM of N-2-hydroxyethylpiperazine-N'-2-ethanesulfonic acid buffer (pH 7.4), 1 mM of MnCl2, 7.5 μg of bovine serium albumin and the membrane preparation (10 μg as protein). After incubation at 0° C. for 5 minutes, 100 ng of epidermal growth factor (hereinafter referred to as "EGF") was added thereto and the mixture was further incubated at 0° C. for 15 minutes. [γ-^32 P]ATP (3000 Ci/mmol, 0.1 μCi) was added thereto to make final volume of 70 μl. After incubation at 0° C. for 15 minutes, 50 μl of the reaction mixture was soaked into Whatman 3 MM filter paper (made by Whatman Ltd.) and immediately the reaction was stopped by an aqueous solution of 10% by weight trichloroacetic acid containing 10 mM sodium pyrophosphate. The filter paper was sufficiently washed with the same solution and then washed with ethanol, and dried. Radioactivity present in the filter paper was measured by liquid scintillation counter (A). Also, radioactivity was measured in case of the reaction without EGF (B), the reaction without the test compound (C), and the reaction without both EGF and the test compound (D) as a control.
Tyrosine kinase inhibition rate (%) was calculated by the following equation. [formula]

5-lipoxygenase = target: T2, 5-lipoxygenase (Cavia porcellus, UniProt A0A286X958); test: 5-Lipoxygenase inhibiting activity (5-HETE formation, cytosol of peritoneal exudate cells); type: biochemical, Hartley guinea pigs; conditions: read-out: Inhibition rate (5-lipoxygenase); for inhibition at 1 µM: 1 μM in the reaction mixture; for inhibition at 10 µM: 10 μM in the reaction mixture
T2 construct: The cytosol fraction was used as an enzyme solution; from tissue; host or cells: peritoneal exudate cells of casein-injected Hartley guinea pigs, 105,000×g cytosol
T2 sequence (A0A286X958 1-674): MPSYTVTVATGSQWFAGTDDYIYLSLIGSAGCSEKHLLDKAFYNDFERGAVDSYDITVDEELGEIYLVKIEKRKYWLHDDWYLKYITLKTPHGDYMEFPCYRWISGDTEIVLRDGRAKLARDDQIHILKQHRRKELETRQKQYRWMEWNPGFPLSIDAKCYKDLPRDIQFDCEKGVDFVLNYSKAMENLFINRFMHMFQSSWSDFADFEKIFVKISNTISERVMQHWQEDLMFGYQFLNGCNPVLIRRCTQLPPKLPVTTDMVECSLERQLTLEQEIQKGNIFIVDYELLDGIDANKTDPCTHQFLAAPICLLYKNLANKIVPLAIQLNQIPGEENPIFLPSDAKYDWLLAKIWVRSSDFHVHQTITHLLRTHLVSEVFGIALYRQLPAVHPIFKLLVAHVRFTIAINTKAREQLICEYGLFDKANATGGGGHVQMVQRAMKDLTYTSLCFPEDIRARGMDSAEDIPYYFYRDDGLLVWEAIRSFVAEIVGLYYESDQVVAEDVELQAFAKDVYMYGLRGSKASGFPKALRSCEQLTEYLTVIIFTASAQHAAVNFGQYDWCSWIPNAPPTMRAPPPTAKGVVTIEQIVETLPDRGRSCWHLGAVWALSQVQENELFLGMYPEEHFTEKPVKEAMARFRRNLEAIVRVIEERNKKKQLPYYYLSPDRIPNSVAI
Procedure: 5-Lipoxygenase inhibiting activity of the compound of the present invention was measured referring to the method for measuring 5-lipoxygenase activity by K. Ochi et al. [Journal of Biological Chemistry (J. Biol. Chem.), 258, 5754(1983)].
Sterilized 2% solution of casein (pH 7) was injected intraperitoneally into Hartley guinea pigs in a volume of 5 ml/100 g body weight. Fifteen hours later, the guinea pigs were killed and peritoneal exudate cells thereof were collected. After the exudate cells were washed with 17 mM Tris--HCl buffer (pH 7.4) containing 0.74% ammonium to remove contaminating erythrocytes in the exudate cells suspension, the cells were washed with buffer A (130 mM NaCl, 1 mM EDTA, 25 mM sodium phosphate, pH 7.4). The washed cells were suspended in buffer B (50 mM sodium phosphate, 1 mM EDTA, 0.1% gelatin, pH 7.4) at 10^8 cells/ml, sonicated and centrifuged at 10,000×g for 20 minutes under the cold atmosphere. The obtained supernatant was further centrifuged at 105,000×g for 60 minutes under the cold atmosphere. The cytosol fraction was used as an enzyme solution.
The enzyme solution was preincubated with the […] in the presence of 1 mM CaCl2, 1 mM reduced gluthathione (GSH) and 2 mM ATP at 30° C. for 5 minutes in 0.2 ml of a reaction mixture and the mixture was further incubated at 30° C. for 5 minutes by adding 20 μM [1-^14 C] arachidonic acid (0.1 μCi) thereto. The test compounds were dissolved in ethanol to give the reaction mixture containing 2% ethanol as a final concentration. Only ethanol was added to the reaction mixture as a control group.
To the reaction mixture were added 2.5 ml of a mixture of chloroform and methanol (2/1 by volume) and 0.3 ml of 40 mM citric acid to stop the reaction. The mixture was vortexed and an organic solvent layer was evaporated to dryness under nitrogen gas. After dissolving the dried organic layer in a fixed amount of the mixture of chloroform and methanol (2/1 by volume), it was spotted on a silica gel plate (Kiesel gel 60F254, E. Merck) and products were separated using a developer (the organic solvent layer of ethyl acetate/water/2,2,4-trimethylpentane/acetic acid=11/10/5/2 by volume). After the radioactive position of the product was determined by means of a radioautography, an area equivalent to that of 5-hydroxyeicosatetraenoic acid (hereinafter referred to as "5-HETE") was scraped off, and then its radioactivity was measured with a liquid scintillation counter. With regarding the amount of the generated 5-HETE as the 5-lipoxygenase inhibiting activity, the inhibition rate (%) in comparison with the control group was calculated according to the following equation. [formula]

[3] = system: antigen-induced airway constriction; test: Inhibitory activity against antigen-induced airway constriction in actively sensitized guinea pigs; type: in vivo; conditions: Cavia porcellus, iv, 3 minutes before antigen inhalation, read-out: Inhibition rate (airway constriction)
Procedure: (3) Inhibitory activity against antigen-induced airway constriction in actively sensitized guinea pigs
That is, the sensitized guinea pigs (5 guinea pigs/group) were provided with artificial respiration by inserting a tracheal cannula under urethane anesthesia (1.5 g/kg body weight, intraperitoneal administration), and then, gallamine at 1 mg/kg body weight was injected intravenously to stop spontaneous respiration of the guinea pigs. Inhalation of 0.5% aqueous solution of ovalbumin was conducted using a nebulizer for 1 minute to increase antigen-induced airway constriction, at the same time, airway pressure was recorded through a transducer. Test compound was administered into jugular vein (i.v.) of the guinea pig 3 minutes before the antigen inhalation or administered orally (p.o.) 2 hours before the antigen inhalation. As a positive control compound, theophylline which was a drug for anti-asthma was used. The effect of the compound was estimated by calculating the maximum value of airway constriction (%) in comparison with the control group, according to the following equation. [formula]

[4] = target: T3, reverse transcriptase derived from Moloney-Murine Leukemia Virus (M-MLV) (Moloney murine leukemia virus, UniProt P03355); test: Inhibiting activity against reverse transcriptase derived from M-MLV; type: biochemical; conditions: read-out: Inhibition rate (reverse transcriptase derived from M-MLV); for inhibition at 10 µM: 10 μM in the reaction mixture
T3 construct: reverse transcriptase derived from Moloney-Murine Leukemia Virus; purchased Pharmacia K. K
Procedure: There was found the following point by using reverse transcriptase derived from Moloney-Murine Leukemia Virus (hereinafter referred to as "M-MLV").
The compound of the present invention was dissolved in DMSO to give a 100 mM solution thereof. Then, the solution was diluted with distilled water containing DMSO to give a solution of the test compound having a defined concentration. A mixed ratio of DMSO and distilled water was adjusted so that the concentration of DMSO at this time is 10% by volume and a final concentration of DMSO at the beginning of a reaction is 1% by volume.
The thus prepared solution of the test compound was mixed with a solution containing 50 mM of Tris--HCl buffer (pH 8.3), 8 mM of MgCl2, 30 mM of NaCl, 50 mM of dithiothreitol (made by Wako Pure Chemical Industries Ltd.), 0.2 mM of thymidine-5'-triphosphate (made by Pharmacia K. K.) and 6 U/ml of reverse transciptase derived from M-MLV (made by Pharmacia K. K.), and preincubated at 37° C. for 30 minutes. After there was added thereto 10 μg/ml of polyadenylic acid (made by PL Biochemicals Co., Ltd.), 0.01 U/ml of oligodeoxy thymidylic acid (made by Pharmacia K. K.) and 10 μCi/ml of [methyl-^3 H] thymidine-5'-triphosphate (made by Amersham Japan Co., Ltd., 47 Ci/mmol) to give a reaction mixture, the mixture was further incubated at 37° C. for 30 minutes, followed by cooling with ice to stop the reaction.
The radioactivity incorporated into deoxyribonucleic acids was measured according to the method of Linteril et al (Science 170, 447 to 449 (1967)). A defined volume of the reaction mixture was soaked into DE-81 filter paper (made by Whatman Ltd.), the filter paper was washed with 5% by weight of Na2 HPO4 solution for three times, and with distilled water and ethanol successively, and then dried. Radioactivity contained in the filter paper was measured by liquid scintillation counter to give the each radioactivity of the test solution groups.
On the other hand, the same procedure as above was carried out using DMSO-distilled water without the test compound instead of using the test solution, to give the value of radioactivity of a control group.
Reverse transcriptase derived from M-MLV inhibition rate (%) was calculated by the following equation. [formula]

Row | inhibition at 1 µM [2] [%] | inhibition at 1 µM (5-lipoxygenase) [%] | Structure (SMILES) | further results
1 | 70 | 87 | CCCCOc1cc(C=C2SC(NCc3ccccc3)=NC2=O)cc(Cc2ccccc2)c1O [Compound 30] | MIC [1]: ≤ 6 mg/L
2 |  | 84 | O=C1Nc2ccccc2C1=Cc1cc(CSc2ccccc2)c(O)c(OCc2ccccc2)c1 [Compound 12] | inhibition in vivo at 1 mg/kg [3]: 32%; inhibition at 10 µM [2]: 30%
3 | 63 | 86 | CCCCOc1cc(C=C2SC(NCc3ccccc3)=NC2=O)cc(CSc2ccccc2)c1O [Compound 29] | 
4 | 25 |  | O=C1OCCC1=Cc1cc(Cc2ccccc2)c(O)c(Cc2ccccc2)c1 [Compound 17] | 
5 | 66 |  | CCOc1cc(C=C2SC(NCc3ccccc3)=NC2=O)cc(CSc2ccccc2)c1O [Compound 28] | MIC [1]: ≤ 15 mg/L
6 |  | 53 | CC(C)c1cc(C=C2SC(NCc3ccco3)=NC2=O)cc(C(C)C)c1O [Compound 43] | inhibition in vivo at 5 mg/kg ([3]; 5 mg/kg): 21%; inhibition at 10 µM [2]: 95%
7 |  | 86 | COc1cc(C=C2C(=O)Nc3ccccc32)cc(Cc2ccccc2)c1O [Compound 13] | 
8 | 45 |  | O=C1Nc2ccccc2C1=Cc1cc(-c2ccccc2)c(O)c(-c2ccccc2)c1 [Compound 3] | 
9 |  | 36 | CC(C)c1cc(C=C2SC(NCc3ccccn3)=NC2=O)cc(C(C)C)c1O [Compound 45] | inhibition in vivo at 1 mg/kg [3]: 42%; MIC [1]: 2 mg/L (≈ 5.06 µM); inhibition at 10 µM [2]: 90%
10 | 80 |  | CC(C)c1cc(C=C2SC(NCc3cccs3)=NC2=O)cc(C(C)C)c1O [Compound 44] | MIC [1]: ≤ 6 mg/L
11 | 43 | 27 | CCCCOc1cc(C=C2C(=O)Nc3ccccc32)cc(Cc2ccccc2)c1O [Compound 14] | 
12 |  |  | CCOc1cc(C=C2SC(=S)NC2=O)cc(CSc2ccccc2)c1O [Compound 6] | inhibition at 10 µM [4]: 98%
13 |  |  | CC(C)c1cc(C=C2SC(NCc3ccc([N+](=O)[O-])cc3)=NC2=O)cc(C(C)C)c1O [Compound 40] | inhibition at 10 µM [2]: 21%; inhibition at 10 µM (5-lipoxygenase): 87%
14 | 98 |  | CCOc1cc(C=C(C#N)C(N)=O)cc(Cc2ccccc2)c1O [Compound 21] | 
15 |  | 23 | O=C1N=C(NCc2ccccc2)SC1=Cc1cc(-c2ccccc2)c(O)c(-c2ccccc2)c1 [Compound 25] | inhibition at 10 µM [2]: 72%
16 | 84 |  | COc1cc(C=C(C#N)C(N)=O)cc(Cc2ccccc2)c1O [Compound 22] | inhibition at 10 µM (5-lipoxygenase): 63%

Row | Structure (SMILES) | inhibition at 1 µM [2] [%] | inhibition at 1 µM (5-lipoxygenase) [%] | further results
17 | O=C1N=C(NCc2ccco2)SC1=Cc1cc(O)c(O)c(CSc2ccccc2)c1 [Compound 27] | 58 |  | inhibition at 1 µM ([4]; 1 μM in the reaction mixture): 73%
18 | O=C1Nc2ccccc2S(=O)(=O)C1=Cc1cc(Cc2ccccc2)c(O)c(Cc2ccccc2)c1 [Compound 5] | 42 |  | inhibition at 10 µM [4]: 87%
